From ChEMBL document CHEMBL1124168 (J Med Chem, 1988) come the findings set out here.

Each structure is given as a SMILES string.

For orientation: Ki means a measure of affinity in units of concentration, obtained from inhibition or displacement. Low readings indicate a stronger hold on the target, high ones a looser hold on the target. Broadly, the Kb is the equilibrium dissociation constant of an antagonist, usually derived from a functional assay. A high value points to a less potent antagonist.

Test [1] deals with Rattus norvegicus. Kind of test: […] antagonist activity was measured by dose required to lower urine osmolality to 300 mOsm/kg of H2O. It counts as functional.
Test [2] has as its system Canis familiaris. Kind of test: Antagonist activity was measured by maximum urine flow with a dose of 100 ug/kg peptide. It is filed as functional, Canis lupus familiaris.
Test [3] concerns the target Vasopressin V2 receptor (Homo sapiens, UniProt P30518). Kind of test: In vitro antagonist activity was measured by inhibition of vasopressin-stimulated adenylate cyclase in renal medullary preparation in human. It counts as functional, tissue-based, Renal medulla.
Test [4] concerns Canis familiaris. Kind of test: Antagonist activity was measured by maximum urine osmolality with a dose of 100 ug/kg peptide after pretreatment with indomethacin in dog. It is filed as functional, Canis lupus familiaris.
The species named for the next test is Sus scrofa. Kind of test: (§1) In vitro antagonist activity was measured by inhibition of binding of [3H]LVP to renal medullary membrane preparation in pig. It is filed as functional. Particulars: Renal medulla.
For test [5], the target named is Vasopressin V2 receptor (Sus scrofa, UniProt P32307). Kind of test: In vitro antagonist activity was measured by inhibition of vasopressin-stimulated adenylate cyclase in renal medullary preparation in pig. It is filed as functional, tissue-based, Renal medulla.
Vasopressin V2 receptor (Sus scrofa, UniProt P32307), sequence (P32307 whole entry): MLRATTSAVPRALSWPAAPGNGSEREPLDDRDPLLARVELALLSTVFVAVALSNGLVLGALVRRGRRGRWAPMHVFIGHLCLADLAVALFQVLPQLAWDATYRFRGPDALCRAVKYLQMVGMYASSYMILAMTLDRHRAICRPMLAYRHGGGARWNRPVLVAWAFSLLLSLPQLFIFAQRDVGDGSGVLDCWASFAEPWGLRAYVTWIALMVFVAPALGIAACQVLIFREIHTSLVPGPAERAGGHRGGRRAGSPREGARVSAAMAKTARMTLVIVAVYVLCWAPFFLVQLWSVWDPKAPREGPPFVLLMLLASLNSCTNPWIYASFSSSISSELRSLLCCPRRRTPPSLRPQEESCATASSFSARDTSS
Test [6] deals with Rattus norvegicus. Nature of the test: […] antagonist activity is measured by dose required to lower urine osmolality to 300 mOsm/kg of H2O. It counts as functional.
Test [7] deals with Canis familiaris. Kind of test: Antagonist activity was measured by maximum urine osmolality with a dose of 100 ug/kg peptide after pretreatment with indomethacin ([…]) in dog. It counts as functional, Canis lupus familiaris.
Test [8] concerns the target Vasopressin V2 receptor (Sus scrofa) (UniProt P32307). The test is described as §1. It counts as tissue-based. Particulars: Renal medulla.
A further test addresses Adenylate cyclase. Kind of test: In vitro antagonist activity was measured by inhibition of vasopressin-stimulated adenylate cyclase in renal medullary preparation in human.
Test [9] relates to Canis familiaris. Kind of test: Agonist activity was measured as maximum urine osmolality with a dose of 100 ug/kg peptide after pretreatment with indomethacin in dog.

Vasopressin V2 receptor (Homo sapiens, UniProt P30518), sequence (P30518 whole entry): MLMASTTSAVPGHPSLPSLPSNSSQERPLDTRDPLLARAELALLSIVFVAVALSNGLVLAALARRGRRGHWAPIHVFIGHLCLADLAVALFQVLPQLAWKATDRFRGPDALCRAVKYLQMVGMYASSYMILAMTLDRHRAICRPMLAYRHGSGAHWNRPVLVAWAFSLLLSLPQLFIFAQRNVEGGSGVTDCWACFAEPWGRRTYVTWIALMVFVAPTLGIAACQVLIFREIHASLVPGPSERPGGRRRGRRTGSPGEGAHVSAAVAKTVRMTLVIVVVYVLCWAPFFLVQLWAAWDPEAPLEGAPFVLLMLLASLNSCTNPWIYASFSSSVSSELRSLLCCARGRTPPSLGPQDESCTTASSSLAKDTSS
Vasopressin V2 receptor (Sus scrofa), sequence (P32307 whole entry): as the sequence (P32307 whole entry) above

In turn, `CCOc1ccc(C[C@H]2NC(=O)CC3(CCCCC3)CCCC(C(=O)N[C@@H](CCCN=C(N)N)C(=O)N[C@H](CCCN=C(N)N)C(N)=O)NC(=O)[C@H](CC(N)=O)NC(=O)[C@H](C(C)C)NC(=O)[C@H](Cc3ccccc3)NC2=O)cc1` (some centres not stated) had an ED300 in the test with Rattus norvegicus [1] of 0.009 mg/kg. Moreover, the Volume in the test with Canis familiaris [2] amounted to 4.6 mL/min. The same compound came in with a Ki at Vasopressin V2 receptor [3] of 3.9 nM. Also, the U osm in the test on Canis familiaris [4] is recorded as 56 mOsmol kg-1. Besides, in the test listed under Sus scrofa, the Kb worked out at 5.1 nM.
As to `CCOc1ccc(C[C@H]2NC(=O)CC3(CCCCC3)SSCC(C(=O)N[C@@H](CCCN=C(N)N)C(N)=O)NC(=O)[C@H](CC(N)=O)NC(=O)[C@H](C(C)C)NC(=O)[C@H](Cc3ccccc3)NC2=O)cc1` (some centres not stated), the Ki on Vasopressin V2 receptor [5] stood at 2.9 nM; on Vasopressin V2 receptor [3], 1.5 nM. The ED300 in the test with Rattus norvegicus [6] came out at 0.058 mg/kg. Also, the Kb in the test filed under Sus scrofa was determined as 10.2 nM.
On to `CCOc1ccc(C[C@H]2NC(=O)CC3(CCCCC3)CCC[C@@H](C(=O)N3CCC[C@H]3C(=O)N[C@@H](CCCN=C(N)N)C(N)=O)NC(=O)[C@H](CC(N)=O)NC(=O)[C@H](C(C)C)NC(=O)[C@H](Cc3ccccc3)NC2=O)cc1` [listing 1 of 2 here], for which the Ki at Vasopressin V2 receptor [5] came out at 3.5 nM; at Vasopressin V2 receptor [3], 2.7 nM.
`CCOc1ccc(C[C@H]2NC(=O)CC3(CCCCC3)SSCC(C(=O)N3CCC[C@@H]3C(=O)N[C@@H](CCCN=C(N)N)C(N)=O)NC(=O)[C@H](CC(N)=O)NC(=O)[C@H](C(C)C)NC(=O)[C@H](Cc3ccccc3)NC2=O)cc1` (some centres not stated) displayed a Kb in the test filed under Sus scrofa of 11.8 nM.
Compound `CCOc1ccc(C[C@H]2NC(=O)CC3(CCCCC3)SSC[C@@H](C(=O)N3CCC[C@H]3C(=O)N[C@@H](CCCN=C(N)N)C(N)=O)NC(=O)[C@H](CC(N)=O)NC(=O)[C@H](C(C)C)NC(=O)[C@H](Cc3ccccc3)NC2=O)cc1` displayed an ED300 with Rattus norvegicus [1] of 0.0084 mg/kg. Further, the Volume with Canis familiaris [2] amounted to 0.07 mL/min. The U osm in the test on Canis familiaris [4] was 1302 mOsmol kg-1.
As for `CCOc1ccc(C[C@H]2NC(=O)CC3(CCCCC3)SSCC(C(=O)N[C@@H](CCCN=C(N)N)C(=O)N[C@H](CCCN=C(N)N)C(N)=O)NC(=O)[C@H](CC(N)=O)NC(=O)[C@H](C(C)C)NC(=O)[C@H](Cc3ccccc3)NC2=O)cc1` (some centres not stated), the results for the Ki at Vasopressin V2 receptor [5] and on Vasopressin V2 receptor [3] were 1.6 nM and 2.4 nM, respectively. Besides, in the test with Rattus norvegicus [1], the ED300 was determined as 0.0135 mg/kg. This compound came in with a Volume in the test with Canis familiaris [2] of 0.76 mL/min. For the same compound, the U osm in the test with Canis familiaris [4] worked out at 429 mOsmol kg-1. In addition, the Kb in the test filed under Sus scrofa is 5.4 nM.
With `N=C(N)NCCC[C@H](NC(=O)[C@@H]1CCCN1C(=O)[C@@H]1CSSC[C@H](N)C(=O)N[C@@H](Cc2ccc(O)cc2)C(=O)N[C@@H](Cc2ccccc2)C(=O)N[C@@H](CCC(N)=O)C(=O)N[C@@H](CC(N)=O)C(=O)N1)C(=O)NCC(N)=O` [VASOPRESSIN], the Volume in the test with Canis familiaris [2] turned out to be 1.4 mL/min. The U osm in the test with Canis familiaris [7] came out at 939 mOsmol kg-1.
In the test with Rattus norvegicus [6], `CCOc1ccc(C[C@H]2NC(=O)CC3(CCCCC3)CCCC(C(=O)N[C@@H](CCCN=C(N)N)C(N)=O)NC(=O)[C@H](CC(N)=O)NC(=O)[C@H](C(C)C)NC(=O)[C@H](Cc3ccccc3)NC2=O)cc1` (some centres not stated) gave an ED300 of 0.028 mg/kg. Further, the Kb in test [8] is 14 nM. Further, the Ki at Adenylate cyclase came to 4.4 nM.
In the test with Rattus norvegicus [1], `CCOc1ccc(C[C@H]2NC(=O)CC3(CCCCC3)CCC[C@@H](C(=O)N3CCC[C@H]3C(=O)N[C@@H](CCCN=C(N)N)C(N)=O)NC(=O)[C@H](CC(N)=O)NC(=O)[C@H](C(C)C)NC(=O)[C@H](Cc3ccccc3)NC2=O)cc1` [listing 2 of 2 here] displayed an ED300 of 0.0122 mg/kg. The compound also came in with a Volume in the test on Canis familiaris [2] of 0.69 mL/min. The U osm with Canis familiaris [9] came to 319 mOsmol kg-1.
Regarding `CCOc1ccc(C[C@H]2NC(=O)CC3(CCCCC3)CCCC(C(=O)N3CCC[C@@H]3C(=O)N[C@@H](CCCN=C(N)N)C(N)=O)NC(=O)[C@H](CC(N)=O)NC(=O)[C@H](C(C)C)NC(=O)[C@H](Cc3ccccc3)NC2=O)cc1` (some centres not stated), the Kb in the test listed under Sus scrofa was determined as 7.1 nM.
In the test with Canis familiaris [2], `COc1ccc2c(c1)c(CC(=O)O)c(C)n2C(=O)c1ccc(Cl)cc1` [INDOMETHACIN] had a Volume of 2.8 mL/min. The U osm in the test with Canis familiaris [4] is 92 mOsmol kg-1.
